Target: T1, full-length ATR (Homo sapiens, UniProt Q13535)
T1 construct: Assays were carried out at 25° C. in the presence of 5 nM full-length ATR
Assay: ATR Inhibition Assay (radioactive-phosphate incorporation)
Type: biochemical
Conditions: for inhibition at 8 µM / % inhibition of ATR: at 8 uM
Method: Compounds were screened for their ability to inhibit ATR kinase using a radioactive-phosphate incorporation assay. Assays were carried out in a mixture of 50 mM Tris/HCl (pH 7.5), 10 mM MgCl2 and 1 mM DTT. Final substrate concentrations were 10 μM [γ-33P]ATP (3mCi 33P ATP/mmol ATP, Perkin Elmer) and 800 μM target peptide ([…] (SEQ. ID NO: 1)).
Assays were carried out at 25° C. in the presence of 5 nM full-length ATR. An assay stock buffer solution was prepared containing all of the reagents listed above, with the exception of ATP and the test compound of interest. 13.5 μL of the stock solution was placed in a 96 well plate followed by addition of 2 μL of DMSO stock containing serial dilutions of the test compound (typically starting from a final concentration of 15 μM with 3-fold serial dilutions) in duplicate (final DMSO concentration 7%). The plate was pre-incubated for 10 minutes at 25° C. and the reaction initiated by addition of 15 μl. [γ-33P]ATP (final concentration 10 μM).
The reaction was stopped after […] by the addition of 30 μL 0.1 M phosphoric acid containing 2 mM ATP. A multiscreen phosphocellulose filter 96-well plate (Millipore, Cat no. MAPHN0B50) was pretreated with 100 μL 0.2M phosphoric acid prior to the addition of 45 μL of the stopped assay mixture. The plate was washed with 5×200 μL 0.2 M phosphoric acid. After drying, 100 μL Optiphase ‘SuperMix’ liquid scintillation cocktail (Perkin Elmer) was added to the well prior to scintillation counting (1450 Microbeta Liquid Scintillation Counter, Wallac).
After removing mean background values for all of the data points, Ki(app) data were calculated from non-linear regression analysis of the initial rate data using the Prism software package (GraphPad Prism version 3.0cx for Macintosh, GraphPad Software, San Diego Calif., USA).

T1 sequence (Q13535 whole entry): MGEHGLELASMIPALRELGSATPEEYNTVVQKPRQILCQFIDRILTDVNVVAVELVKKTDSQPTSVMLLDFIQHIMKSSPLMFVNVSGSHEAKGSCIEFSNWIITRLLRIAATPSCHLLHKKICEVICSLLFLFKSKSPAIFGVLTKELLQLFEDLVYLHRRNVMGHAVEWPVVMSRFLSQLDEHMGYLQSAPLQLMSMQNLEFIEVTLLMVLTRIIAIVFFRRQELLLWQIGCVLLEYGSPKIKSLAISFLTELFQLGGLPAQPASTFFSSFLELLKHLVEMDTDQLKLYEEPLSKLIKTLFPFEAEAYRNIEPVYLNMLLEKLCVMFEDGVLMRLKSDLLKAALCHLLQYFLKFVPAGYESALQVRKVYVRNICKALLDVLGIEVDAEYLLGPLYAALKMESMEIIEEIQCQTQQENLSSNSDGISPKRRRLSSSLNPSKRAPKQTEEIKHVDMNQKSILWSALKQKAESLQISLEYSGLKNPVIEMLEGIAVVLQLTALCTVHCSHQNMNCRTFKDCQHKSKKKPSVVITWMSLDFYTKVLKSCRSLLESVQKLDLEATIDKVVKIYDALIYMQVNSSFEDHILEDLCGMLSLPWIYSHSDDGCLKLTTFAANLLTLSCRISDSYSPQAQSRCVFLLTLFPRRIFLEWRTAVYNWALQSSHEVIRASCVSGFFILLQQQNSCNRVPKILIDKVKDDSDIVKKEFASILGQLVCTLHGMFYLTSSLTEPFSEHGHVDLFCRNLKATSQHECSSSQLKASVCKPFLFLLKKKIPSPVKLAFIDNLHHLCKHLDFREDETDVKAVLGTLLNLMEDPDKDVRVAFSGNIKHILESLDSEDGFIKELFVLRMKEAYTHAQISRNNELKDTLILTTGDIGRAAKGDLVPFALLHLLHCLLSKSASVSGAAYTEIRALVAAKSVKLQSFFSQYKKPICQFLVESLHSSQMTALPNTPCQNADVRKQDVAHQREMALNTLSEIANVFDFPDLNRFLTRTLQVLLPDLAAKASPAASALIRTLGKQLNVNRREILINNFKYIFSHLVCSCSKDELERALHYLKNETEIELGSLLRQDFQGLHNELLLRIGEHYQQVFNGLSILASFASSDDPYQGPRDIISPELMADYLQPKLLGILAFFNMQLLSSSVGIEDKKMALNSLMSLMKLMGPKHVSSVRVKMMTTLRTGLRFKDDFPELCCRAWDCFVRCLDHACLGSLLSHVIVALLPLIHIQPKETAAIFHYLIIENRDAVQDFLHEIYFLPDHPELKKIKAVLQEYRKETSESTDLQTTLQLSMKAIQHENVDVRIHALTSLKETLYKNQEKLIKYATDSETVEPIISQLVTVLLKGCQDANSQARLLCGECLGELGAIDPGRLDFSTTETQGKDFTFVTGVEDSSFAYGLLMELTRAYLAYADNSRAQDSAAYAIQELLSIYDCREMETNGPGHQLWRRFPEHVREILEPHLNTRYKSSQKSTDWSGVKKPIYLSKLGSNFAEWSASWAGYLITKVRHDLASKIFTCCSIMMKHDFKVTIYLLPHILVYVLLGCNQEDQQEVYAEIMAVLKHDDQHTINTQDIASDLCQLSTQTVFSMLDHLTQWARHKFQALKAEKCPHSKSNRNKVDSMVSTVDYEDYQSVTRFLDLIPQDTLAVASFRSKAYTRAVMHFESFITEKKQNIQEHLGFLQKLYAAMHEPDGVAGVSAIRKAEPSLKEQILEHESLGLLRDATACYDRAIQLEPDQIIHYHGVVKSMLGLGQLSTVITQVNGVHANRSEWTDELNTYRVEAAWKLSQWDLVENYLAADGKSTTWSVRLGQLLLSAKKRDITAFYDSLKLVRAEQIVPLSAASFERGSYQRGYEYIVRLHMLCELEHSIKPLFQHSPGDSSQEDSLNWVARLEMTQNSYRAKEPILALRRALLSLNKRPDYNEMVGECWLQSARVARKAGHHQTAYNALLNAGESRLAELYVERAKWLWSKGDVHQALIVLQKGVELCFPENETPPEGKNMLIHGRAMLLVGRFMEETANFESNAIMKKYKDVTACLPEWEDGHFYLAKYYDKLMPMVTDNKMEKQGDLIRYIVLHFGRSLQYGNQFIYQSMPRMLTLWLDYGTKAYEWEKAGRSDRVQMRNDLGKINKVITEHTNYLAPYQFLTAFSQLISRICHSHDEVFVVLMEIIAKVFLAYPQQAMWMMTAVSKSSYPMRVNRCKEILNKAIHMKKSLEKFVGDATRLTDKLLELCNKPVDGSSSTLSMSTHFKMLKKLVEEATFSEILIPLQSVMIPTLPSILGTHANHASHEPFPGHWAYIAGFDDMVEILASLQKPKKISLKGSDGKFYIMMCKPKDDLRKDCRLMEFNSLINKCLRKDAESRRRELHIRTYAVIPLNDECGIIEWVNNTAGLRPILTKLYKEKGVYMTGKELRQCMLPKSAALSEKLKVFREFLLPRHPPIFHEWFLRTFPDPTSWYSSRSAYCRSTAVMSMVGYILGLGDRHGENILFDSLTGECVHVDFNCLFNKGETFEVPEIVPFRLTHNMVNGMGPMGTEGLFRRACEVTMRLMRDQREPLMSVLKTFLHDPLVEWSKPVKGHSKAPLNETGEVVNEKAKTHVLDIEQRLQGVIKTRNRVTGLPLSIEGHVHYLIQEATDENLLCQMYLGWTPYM

SMILES: CC(C)n1cc(-c2cnc(N)c(OCc3ccccc3)n2)ccc1=O [Compound V-15, 5-(5-amino-6-(benzyloxy)pyrazin-2-yl)-1-isopropylpyridin-2(1H)-one]
- Ki: 100 to 1000 nM

SMILES: CC(C)S(=O)(=O)c1ccc(-c2cnc(N)c(NCc3ccccc3)n2)cc1 [Compound V-3]
- Ki: > 1000 nM
- inhibition at 8 µM: 10%

SMILES: CC(C)S(=O)(=O)c1ccc(-c2cnc(N)c(NCCc3ccccc3)n2)cc1 [Compound V-5, 5-(4-Isopropylsulfonylphenyl)-N3-phenethyl-pyrazine-2,3-diamine]
- inhibition at 8 µM: 20%

SMILES: CC(C)S(=O)(=O)c1ccc(-c2cnc(N)c(N3CCC(N)C3)n2)cc1 (centres unmarked) [Compound V-2, 3-(3-Aminopyrrolidin-1-yl)-5-(4-isopropylsulfonylphenyl)pyrazin-2-amine]
- Ki: > 1000 nM
- inhibition at 8 µM: 10%

SMILES: CC(C)S(=O)(=O)c1ccc(-c2cnc(N)c(NCC3=CC(O)CC=C3)n2)cc1 (centres unmarked) [Compound V-4]
- Ki: 100 to 1000 nM

SMILES: CC(C)S(=O)(=O)c1ccc(-c2cnc(N)c(NC[C@@H](O)c3ccccc3)n2)cc1 [Compound V-7, (1S)-2-[[3-Amino-6-(4-isopropylsulfonylphenyl)pyrazin-2-yl]amino]-1-phenyl-ethanol]
- Ki: > 1000 nM
- inhibition at 8 µM: 30%

SMILES: CC(C)S(=O)(=O)c1ccc(-c2cnc(N)c(N3CCN(c4ccccc4)CC3)n2)cc1 [Compound V-1, 5-(4-Isopropylsulfonylphenyl)-3-(4-phenylpiperazin-1-yl)pyrazin-2-amine]
- % inhibition of ATR: no detectable inhibition

SMILES: CS(=O)(=O)c1ccc(-c2cnc(N)c(NS(=O)(=O)c3ccccc3)n2)cc1 [Compound V-14, N-(3-amino-6-(4-(methylsulfonyl)phenyl)pyrazin-2-yl)benzenesulfonamide]
- Ki: > 1000 nM
- % inhibition of ATR: no detectable inhibition

SMILES: CC(C)S(=O)(=O)c1ccc(-c2cnc(N)c(/C(F)=C/c3ccccc3)n2)cc1 [Compound V-16, (Z)-3-(1-fluoro-2-phenylvinyl)-5-(4-(isopropylsulfonyl)phenyl)pyrazin-2-amine]
- Ki: ≤ 100 nM

SMILES: CC(C)S(=O)(=O)c1ccc(-c2cnc(N)c(NCCc3ccccc3)n2)cc1 [Compound V-13, 6-(4-(isopropylsulfonyl)phenyl)-N2-phenethylpyrazine-2,3-diamine]
- Ki: > 1000 nM

SMILES: CC(C)S(=O)(=O)c1ccc(-c2cnc(N)c(CCc3ccccc3)n2)cc1 [Compound V-11, 5-(4-Isopropylsulfonylphenyl)-3-phenethyl-pyrazin-2-amine]
- Ki: ≤ 100 nM

SMILES: CS(=O)(=O)c1ccc(-c2cnc(N)c(/C=C/c3ccccc3)n2)cc1 [Compound V-10]
- Ki: ≤ 100 nM

SMILES: CC(C)S(=O)(=O)c1ccc(-c2cnc(N)c(C(=O)c3ccccc3)n2)cc1 [Compound V-12, [3-Amino-6-(4-isopropylsulfonylphenyl)pyrazin-2-yl]-phenyl-methanone]
- Ki: ≤ 100 nM

SMILES: CS(=O)(=O)c1ccc(-c2cnc(N)c(OCc3ccccc3)n2)cc1 [Compound V-9]
- Ki: ≤ 100 nM

SMILES: CC(C)S(=O)(=O)c1ccc(-c2cnc(N)c(NC[C@H](O)c3ccccc3)n2)cc1 [Compound V-6, (1R)-2-[[3-amino-6-(4-isopropylsulfonylphenyl)pyrazin-2-yl]amino-]-1-phenyl-ethanol]
- Ki: > 1000 nM
- inhibition at 8 µM: 10%

Reference: patent publication US9062008B2, “Compounds useful as inhibitors of ATR kinase” (Vertex Pharmaceuticals Incorporated, priority 2010, dated 2015)
